Laboratory results reported in ChEMBL document CHEMBL2311327, “Anti-liver fibrotic lignans from the fruits of Schisandra arisanensis and Schisandra sphenanthera” (Bioorg Med Chem Lett, 2013).

Key:
Format in all cases: cell-based
HSC-T6 [1] = experiment: Inhibition of NF-kappaB (unknown origin) expressed in TNFalpha-stimulated rat HSC-T6 cells assessed as reduction of HSC activation at 50 ug/ml treated 30 mins before TNFalpha stimulation measured after 6 hrs by bioluminescence based luciferase reporter gene assay relative to control
[2] = Cytotoxicity against rat HSC-T6 cells
HSC-T6 [3] = experiment: Inhibition of NF-kappaB (unknown origin) expressed in TNFalpha-stimulated rat HSC-T6 cells assessed as reduction of HSC activation at 10 ug/ml treated 30 mins before TNFalpha stimulation measured after 6 hrs by bioluminescence based luciferase reporter gene assay relative to control; settings: Homo sapiens

| Compound | inhibition (HSC-T6 [1]) | other results |
| --- | --- | --- |
| COc1cc2c(c(OC)c1OC)-c1c3cc4c(c1O[C@](C)([C@H](C)CO)C(=O)O[C@@H]2[C@@H](C)[C@@H](C)C3)OCO4 | 4.87% |  |
| COc1cc2c(c(OC)c1OC)-c1c(cc(O)c(OC)c1OC)C[C@H](C)[C@](C)(O)[C@@H]2OC(=O)c1ccccc1 | 27.9% |  |
| COc1cc([C@@H]2c3cc(OC)c(O)cc3C(=O)[C@@H](C)[C@H]2C)ccc1O | 46.4% |  |
| C/C=C(/C)C(=O)O[C@H]1c2cc(OC)c(OC)c(OC)c2-c2c(cc3c(c2OC)OCO3)C[C@H](C)[C@@]1(C)O | 6.64% |  |
| C/C=C(/C)C(=O)O[C@H]1c2cc3c(c(OC)c2-c2c(cc4c(c2OC)OCO4)C[C@H](C)[C@]1(C)O)OCO3 | 34.8% |  |
| COc1cc(C[C@@H](C)[C@@H](C)Cc2cc(O)c(OC)c(OC)c2)cc(O)c1OC [PREGOMISIN] |  | Activity [2]: Toxic |
| COc1c2c(cc3c1-c1c(cc4c(c1OC)OCO4)[C@H](OC(=O)c1ccccc1)[C@@](C)(O)[C@@H](C)C3)OCO2 | 71.8% |  |
| COc1cc2c(c(OC)c1OC)-c1c(cc(O)c(OC)c1OC)C[C@H](C)[C@H](C)[C@@H]2O | 49.2% |  |
| COc1cc2c(c(OC)c1OC)-c1c(cc3c(c1OC)OCO3)C[C@H](C)[C@](C)(O)[C@H]2OC(=O)c1ccccc1 [GOMISIN C] |  | Activity [2]: Toxic |
| SILYMARIN |  | inhibition (HSC-T6 [3]): 51.4% |
| COc1cc2c(c(O)c1OC)-c1c(cc(OC)c(OC)c1OC)C[C@@H](C)[C@@H](C)C2 | 69% |  |
| C/C=C(\C)C(=O)O[C@H]1c2cc(OC)c(OC)c(OC)c2-c2c(cc(O)c(OC)c2OC)C[C@H](C)[C@]1(C)O | 43.2% |  |
